Assays:
Assay type in all cases: cell-based, human
[1] = tested on: cells differentiated from iPS cell line MAP2 Neo #2; test: Flow cytometry of midbrain DA neuron differentiation with G418 drug selection (Example 1); details: day 38; 100 μg/mL G418 selection; same protocol without drug selection gave 39% neurons
Description: On Day 24, cells were dissociated using Accutase (45 min) and were re-plated at 3.1×10^5 cells/cm^2 onto flasks pre-coated with poly-L-ornithine and laminin (PLO/laminin) in Maturation Medium containing 2.5 μM blebbistatin. Cells were fed with Maturation Medium on Day 25. On Day 27 and Day 29, cells were fed with Maturation Medium containing 100 μg/mL G418 to select against cells not expressing the neomycin resistance gene under the control of a pan-neuronal MAP2 promoter.
On Day 31, cells were dissociated using Accutase (45 min) and were re-plated at 3.1×10^5 cells/cm^2 onto PLO/ laminin flasks in Maturation Medium containing 100 μg/mL G418 and 2.5 μM blebbistatin. On Day 32, Day 34 and Day 36, cells were fed with Maturation Medium. On Day 38, cells were dissociated using Accutase (45 min) and cryopreserved in CryoStor CS10 medium at 1.25×10^7 cells/mL using a controlled rate freezer.
The effect of drug selection on gene expression in cell populations was also analyzed. […] This iPS cell lines (MAP2 Neo #2 (01279.107.00402)) was generated using zinc finger nuclease-mediated homologous recombination at the AAVS1 safe harbor site, as detailed above. The midbrain DA neuron differentiation protocol performed without drug selection results in a population of cells that is 39% neurons (Map2^+/Nestin^−) on day 38. […]

[2] = tested on: cells differentiated from iPS cell line MAP2 Neo #2; test: Flow cytometry of cells made with the No FGF8 protocol with drug selection (+G418) (Example 2); details: +G418, 7 days post-thaw
Description: On Day 19, cells were dissociated using Accutase (45 min) and were re-plated at 3.1×10^5 cells/cm^2 onto flasks pre-coated with poly-L-ornithine and laminin (PLO/laminin) in Maturation Medium containing 2.5 μM blebbistatin. Cells were fed with Maturation Medium on Days 20, 22 and 24. To compare unselected cells to those that had undergone drug selection, in some experiments a side-arm condition of cells were fed on Day 22 and 24 with Maturation Medium containing 100 μg/mL G418 to select against cells not expressing the neomycin resistance gene under the control of a pan-neuronal MAP2 promoter.
On Day 26, cells were dissociated using Accutase (45 min) and cryopreserved in CryoStor CS10 medium at 1.25×10^7 cells/mL using a controlled rate freezer.
In further studies the purity of mature midbrain DA neurons was assessed by flow cytometry of cells generated using a “no FGF8” protocol alone compared to cells obtained using a drug selection method. When the cells are cryopreserved on day 26 with no drug selection, they are 99% FoxA2^+, 40% TH^+, and 77% Map2^+. […] For comparison, cells made using the same protocol but with drug selection (+G418), the final purity at 7 days post-thaw was 96% FoxA2^+, 63% TH^+, and 98% Map2^+.

MAP2 Neo #2 iPS cells = test: Midbrain specification during DA progenitor induction with a MEK inhibitor; details: 1 μM PD0325901 added from Day 2 of differentiation
Description: Day 1 medium was composed of DMEM/F12 with B27 Supplement and containing a cocktail of small molecule inhibitors and activators (“Induction Cocktail”): 200 nM LDN-193189, […] SB431542, 2 μM purmorphamine, 100 ng/mL Shh C25II and 1.25 μM CHIR 99021. […] On Day 3 and Day 4, the cells were fed with DMEM/F12 with B27 (−Vitamin A)+Induction Cocktail+1 μM PD0325901.

Row | SMILES | neurons (Map2+/Nestin-) in the cell population [1] [%] | TH+ cells, final purity ([2]; without selection 55%) [%] | Map2+ cells, final purity ([2]; without selection 90%) [%] | FoxA2+ cells, final purity ([2]; without selection 93%) [%] | midbrain specification (MAP2 Neo #2 iPS cells)
1 | CN[C@@H]1[C@@H](O)[C@@H](O[C@@H]2[C@@H](O)[C@H](O[C@H]3O[C@H]([C@@H](C)O)[C@@H](O)[C@H](O)[C@H]3N)[C@@H](N)C[C@H]2N)OC[C@]1(C)O [G418] | 95 | 63 | 98 | 96 | 
2 | O=C(NOC[C@H](O)CO)c1ccc(F)c(F)c1Nc1ccc(I)cc1F [PD0325901] |  |  |  |  | induces faster and more efficient midbrain specification

From patent US10828335B2, “Production of midbrain dopaminergic neurons and methods for the use thereof” (FUJIFILM Cellular Dynamics, Inc., priority 2014, dated 2020)
